The source made the active and inactive calls. The calls are words filed in the database; no cut-off is given here.
Key:
[1] = biological target: T1, Phosphatidylinositol 4,5-bisphosphate 3-kinase catalytic subunit delta isoform (Homo sapiens, UniProt O00329); assay: Inhibition of PI3Kdelta (unknown origin) using PIP2 as substrate incubated for 2 hrs in presence of ATP by Kinase Glo luminescence assay
T1 sequence (O00329 whole entry): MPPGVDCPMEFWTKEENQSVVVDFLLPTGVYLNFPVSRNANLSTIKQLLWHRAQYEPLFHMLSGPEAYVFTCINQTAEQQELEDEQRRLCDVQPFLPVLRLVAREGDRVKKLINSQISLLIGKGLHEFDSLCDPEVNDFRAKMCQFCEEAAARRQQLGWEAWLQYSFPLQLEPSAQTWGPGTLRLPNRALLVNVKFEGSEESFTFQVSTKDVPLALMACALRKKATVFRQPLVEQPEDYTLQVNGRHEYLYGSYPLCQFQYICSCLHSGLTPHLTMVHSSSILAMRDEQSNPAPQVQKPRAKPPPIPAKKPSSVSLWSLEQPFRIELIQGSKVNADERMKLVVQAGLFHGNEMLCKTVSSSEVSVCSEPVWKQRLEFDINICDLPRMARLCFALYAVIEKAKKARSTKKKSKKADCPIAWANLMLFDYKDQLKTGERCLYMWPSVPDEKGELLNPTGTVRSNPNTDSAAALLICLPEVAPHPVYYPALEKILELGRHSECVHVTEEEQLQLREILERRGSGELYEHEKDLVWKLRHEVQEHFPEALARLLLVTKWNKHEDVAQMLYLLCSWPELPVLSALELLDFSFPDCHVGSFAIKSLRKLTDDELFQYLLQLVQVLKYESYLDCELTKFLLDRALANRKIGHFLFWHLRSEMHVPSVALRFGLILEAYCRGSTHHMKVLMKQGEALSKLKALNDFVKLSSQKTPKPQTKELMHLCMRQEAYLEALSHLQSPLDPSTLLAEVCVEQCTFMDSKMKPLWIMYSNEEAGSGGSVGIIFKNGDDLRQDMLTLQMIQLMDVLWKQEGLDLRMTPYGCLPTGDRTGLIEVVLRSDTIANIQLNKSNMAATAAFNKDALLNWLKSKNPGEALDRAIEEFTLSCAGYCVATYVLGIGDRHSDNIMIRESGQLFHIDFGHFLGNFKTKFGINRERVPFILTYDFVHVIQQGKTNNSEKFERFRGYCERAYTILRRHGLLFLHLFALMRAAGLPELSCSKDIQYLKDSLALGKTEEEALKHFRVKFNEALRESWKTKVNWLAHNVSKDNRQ

[2] = tested on: HeLa; assay: Induction of apoptosis in human HeLa cells assessed as early apoptotic cells at 2.5 uM incubated for 36 hrs by Annexin V-FITC/PI staining based flow cytometric analysis (reference value: 2.02 %); type: functional
[3] = Half life in Sprague-Dawley rat at 1 mg/kg, iv measured for 24 hrs by LC-MS/MS analysis; type: ADME, organism-based; conditions: in vivo
[4] = Toxicity in BALB/c nude mouse xenografted with human HeLa cells assessed as pathological changes in liver at 60 mg/kg, IG administered daily for 30 days by hematoxylin and eosin staining based microscopic analysis; type: organism-based; conditions: in vivo, po, 720 h, time 30 day
[5] = Toxicity in BALB/c nude mouse xenografted with human HeLa cells assessed as pathological changes in lung at 60 mg/kg, IG administered daily for 30 days by hematoxylin and eosin staining based microscopic analysis; type: organism-based; conditions: in vivo, po, 720 h, time 30 day
[6] = tested on: SW-620; assay: Antiproliferative activity against human SW620 cells assessed as inhibition of cell growth incubated for 48 to 72 hrs by MTT assay; type: functional, cell-based
[7] = tested on: HT-29; assay: Antiproliferative activity against human HT-29 cells with PIK3CA mutation assessed as inhibition of cell growth incubated for 48 to 72 hrs by MTT assay; type: functional, cell-based
[8] = tested on: HeLa; assay: Induction of apoptosis in human HeLa cells assessed as viable cells at 0.625 uM incubated for 36 hrs by Annexin V-FITC/PI staining based flow cytometric analysis (reference value: 96.14 %); type: functional; conditions: read-out: Activity
[9] = tested on: HeLa; assay: Antitumor activity against human HeLa cells xenografted in BALB/c nude mouse assessed as tumor growth inhibition at 60 mg/kg, IG administered daily for 30 days and measured every 2 days relative to control; type: functional; conditions: po, 720 h, time 30 day, read-out: TGI
[10] = biological target: DNA-dependent protein kinase catalytic subunit (Homo sapiens) (UniProt P78527); assay: Inhibition of DNA-PK (unknown origin) at 1 uM
Sequence of DNA-dependent protein kinase catalytic subunit (Homo sapiens) (P78527 whole entry): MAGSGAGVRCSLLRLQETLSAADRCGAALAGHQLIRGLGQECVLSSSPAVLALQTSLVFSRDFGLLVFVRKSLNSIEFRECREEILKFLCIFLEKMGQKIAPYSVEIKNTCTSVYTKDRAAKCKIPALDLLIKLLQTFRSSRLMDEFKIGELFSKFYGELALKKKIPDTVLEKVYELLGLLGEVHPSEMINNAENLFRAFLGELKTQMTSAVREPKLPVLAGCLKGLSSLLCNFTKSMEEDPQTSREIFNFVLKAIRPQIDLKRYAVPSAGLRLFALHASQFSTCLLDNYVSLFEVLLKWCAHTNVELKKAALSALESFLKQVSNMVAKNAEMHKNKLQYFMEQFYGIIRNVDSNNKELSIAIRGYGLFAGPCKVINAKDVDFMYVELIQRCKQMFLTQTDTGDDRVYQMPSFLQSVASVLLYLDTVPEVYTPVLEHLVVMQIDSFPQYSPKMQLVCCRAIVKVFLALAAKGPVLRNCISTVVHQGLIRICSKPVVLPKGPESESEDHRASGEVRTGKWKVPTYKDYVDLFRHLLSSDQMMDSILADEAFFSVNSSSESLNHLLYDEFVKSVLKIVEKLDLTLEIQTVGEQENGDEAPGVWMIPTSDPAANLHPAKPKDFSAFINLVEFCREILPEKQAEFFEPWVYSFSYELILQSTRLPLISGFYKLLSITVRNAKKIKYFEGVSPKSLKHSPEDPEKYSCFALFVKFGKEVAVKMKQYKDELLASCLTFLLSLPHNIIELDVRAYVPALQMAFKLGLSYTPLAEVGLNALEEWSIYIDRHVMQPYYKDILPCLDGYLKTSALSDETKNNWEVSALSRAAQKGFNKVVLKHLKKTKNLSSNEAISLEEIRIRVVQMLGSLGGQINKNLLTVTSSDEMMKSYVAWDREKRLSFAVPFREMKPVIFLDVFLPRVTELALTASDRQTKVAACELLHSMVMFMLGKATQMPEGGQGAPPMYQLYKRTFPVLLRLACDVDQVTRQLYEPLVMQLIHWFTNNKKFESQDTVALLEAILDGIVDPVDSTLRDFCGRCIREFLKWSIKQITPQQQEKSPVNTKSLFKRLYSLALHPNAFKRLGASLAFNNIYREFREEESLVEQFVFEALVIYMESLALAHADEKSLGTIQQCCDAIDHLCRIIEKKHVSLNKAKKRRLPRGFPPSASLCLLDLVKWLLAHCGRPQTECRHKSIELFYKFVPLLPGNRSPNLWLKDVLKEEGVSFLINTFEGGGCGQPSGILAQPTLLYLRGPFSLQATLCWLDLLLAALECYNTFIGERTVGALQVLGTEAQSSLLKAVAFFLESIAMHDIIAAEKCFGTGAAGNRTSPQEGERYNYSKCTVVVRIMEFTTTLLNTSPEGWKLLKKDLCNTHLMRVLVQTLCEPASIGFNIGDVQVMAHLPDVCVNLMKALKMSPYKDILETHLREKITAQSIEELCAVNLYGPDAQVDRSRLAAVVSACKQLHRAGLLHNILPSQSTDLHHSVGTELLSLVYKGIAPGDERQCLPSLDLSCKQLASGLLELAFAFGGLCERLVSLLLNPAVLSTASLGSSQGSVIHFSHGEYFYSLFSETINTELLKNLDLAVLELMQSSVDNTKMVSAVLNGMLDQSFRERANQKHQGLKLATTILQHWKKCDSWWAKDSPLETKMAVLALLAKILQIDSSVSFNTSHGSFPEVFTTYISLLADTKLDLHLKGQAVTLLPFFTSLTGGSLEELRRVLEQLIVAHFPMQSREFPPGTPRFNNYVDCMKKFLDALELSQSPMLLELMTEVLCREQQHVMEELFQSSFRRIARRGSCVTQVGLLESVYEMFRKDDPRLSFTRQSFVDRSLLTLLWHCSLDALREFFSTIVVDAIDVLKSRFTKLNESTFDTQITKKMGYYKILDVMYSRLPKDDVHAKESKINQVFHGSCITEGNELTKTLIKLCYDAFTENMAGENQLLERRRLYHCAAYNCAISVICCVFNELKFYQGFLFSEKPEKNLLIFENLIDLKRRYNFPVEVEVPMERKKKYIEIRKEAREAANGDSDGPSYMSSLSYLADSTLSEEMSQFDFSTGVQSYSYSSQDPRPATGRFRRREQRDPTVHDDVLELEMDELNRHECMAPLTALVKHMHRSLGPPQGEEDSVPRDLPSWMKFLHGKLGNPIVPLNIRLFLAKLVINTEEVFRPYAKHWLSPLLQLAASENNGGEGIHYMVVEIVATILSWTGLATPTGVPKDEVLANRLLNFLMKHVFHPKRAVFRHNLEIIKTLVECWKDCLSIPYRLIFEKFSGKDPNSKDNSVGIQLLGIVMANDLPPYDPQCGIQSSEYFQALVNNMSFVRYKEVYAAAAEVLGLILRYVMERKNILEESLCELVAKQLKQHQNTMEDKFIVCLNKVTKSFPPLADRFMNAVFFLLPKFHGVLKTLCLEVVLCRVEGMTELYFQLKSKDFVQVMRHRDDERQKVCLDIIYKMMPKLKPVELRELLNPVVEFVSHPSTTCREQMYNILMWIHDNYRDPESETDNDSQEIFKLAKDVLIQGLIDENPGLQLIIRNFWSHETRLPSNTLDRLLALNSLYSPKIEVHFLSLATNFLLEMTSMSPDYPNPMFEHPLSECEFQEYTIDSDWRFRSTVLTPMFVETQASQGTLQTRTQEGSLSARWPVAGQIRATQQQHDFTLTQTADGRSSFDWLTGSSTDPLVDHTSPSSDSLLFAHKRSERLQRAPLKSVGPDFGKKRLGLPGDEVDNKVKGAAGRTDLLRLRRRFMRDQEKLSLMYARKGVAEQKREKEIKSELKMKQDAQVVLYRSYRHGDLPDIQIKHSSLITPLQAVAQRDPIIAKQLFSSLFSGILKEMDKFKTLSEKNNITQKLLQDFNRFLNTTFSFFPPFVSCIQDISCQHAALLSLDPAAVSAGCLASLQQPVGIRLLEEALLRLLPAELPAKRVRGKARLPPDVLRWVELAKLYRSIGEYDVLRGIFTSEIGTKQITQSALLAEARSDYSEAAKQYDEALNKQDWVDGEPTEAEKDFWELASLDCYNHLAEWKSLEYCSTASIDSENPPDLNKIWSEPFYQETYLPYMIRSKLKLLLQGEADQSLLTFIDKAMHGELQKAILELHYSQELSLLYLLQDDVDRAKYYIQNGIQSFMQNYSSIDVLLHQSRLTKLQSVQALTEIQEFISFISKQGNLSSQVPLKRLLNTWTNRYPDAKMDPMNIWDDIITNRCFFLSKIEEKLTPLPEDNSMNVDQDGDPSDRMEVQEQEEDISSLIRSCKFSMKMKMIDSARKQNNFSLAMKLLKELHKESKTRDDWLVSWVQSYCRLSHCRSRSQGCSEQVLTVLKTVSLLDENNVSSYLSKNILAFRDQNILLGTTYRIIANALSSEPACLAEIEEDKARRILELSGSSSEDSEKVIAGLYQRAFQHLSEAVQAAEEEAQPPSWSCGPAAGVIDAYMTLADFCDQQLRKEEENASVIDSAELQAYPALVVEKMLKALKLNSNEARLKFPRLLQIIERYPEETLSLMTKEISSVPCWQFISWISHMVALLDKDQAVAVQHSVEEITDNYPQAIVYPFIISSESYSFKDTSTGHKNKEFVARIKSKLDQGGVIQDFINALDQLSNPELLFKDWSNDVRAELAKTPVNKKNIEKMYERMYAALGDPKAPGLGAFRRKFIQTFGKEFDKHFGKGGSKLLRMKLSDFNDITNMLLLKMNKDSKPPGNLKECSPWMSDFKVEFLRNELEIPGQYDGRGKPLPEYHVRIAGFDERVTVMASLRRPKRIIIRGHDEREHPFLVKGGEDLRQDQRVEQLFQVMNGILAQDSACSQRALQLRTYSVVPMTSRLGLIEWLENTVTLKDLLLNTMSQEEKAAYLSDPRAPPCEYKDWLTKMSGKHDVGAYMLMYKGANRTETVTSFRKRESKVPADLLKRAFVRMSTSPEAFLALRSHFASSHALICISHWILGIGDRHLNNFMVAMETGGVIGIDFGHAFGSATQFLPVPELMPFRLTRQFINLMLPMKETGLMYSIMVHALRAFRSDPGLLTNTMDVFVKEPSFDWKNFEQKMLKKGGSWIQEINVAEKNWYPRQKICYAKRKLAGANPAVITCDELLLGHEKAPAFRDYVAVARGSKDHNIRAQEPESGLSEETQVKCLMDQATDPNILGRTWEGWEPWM

[11] = tested on: HeLa; assay: Inhibition of colony formation in human HeLa cells assessed as reduction in colony forming ability at 0.625 uM incubated for 15 days by crystal violet staining based analysis; type: functional; conditions: 360 h, time 15 day
[12] = Toxicity in BALB/c nude mouse xenografted with human SW620 cells assessed as reduction in body weight at 15 to 60 mg/kg, IG administered daily for 30 days and measured every 2 days; type: organism-based, SW-620; conditions: in vivo, po, 720 h, dose 15-60 mg/kg, time 30 day
[13] = Half life in Sprague-Dawley rat at 10 mg/kg, po measured for 24 hrs by LC-MS/MS analysis; type: ADME, organism-based; conditions: in vivo
[14] = tested on: HeLa; assay: Induction of apoptosis in human HeLa cells assessed as dead cells at 1.25 uM incubated for 36 hrs by Annexin V-FITC/PI staining based flow cytometric analysis (reference value: 0.44 %); type: functional
[15] = tested on: SW-620; assay: Induction of cell cycle arrest in human SW620 cells assessed as accumulation of cells at G0/G1 phase measured after 24 hrs by propidium iodide staining based flow cytometry analysis; type: functional; conditions: dose 0.15625-2.5 µM, DDE = dose-dependent effect
[16] = AUC (0 to infinity) in Sprague-Dawley rat at 1 mg/kg, iv measured for 24 hrs by LC-MS/MS analysis; type: ADME, organism-based; parameters: time 24 hrs, dose 1 mg/kg, route iv; conditions: in vivo
[17] = tested on: HeLa; assay: Inhibition of PI3K/mTOR signalling pathway in human HeLa cells assessed as inhibition of S6 protein phosphorylation incubated for 24 hrs by Western blot analysis; type: cell-based; conditions: dose 0.3125-2.5 µM, DDE = dose-dependent effect
[18] = tested on: HeLa; assay: Inhibition of colony formation in human HeLa cells assessed as reduction in colony forming ability incubated for 15 days by crystal violet staining based analysis; type: functional, cell-based; conditions: dose 0.15625-1.25 µM, time 15.0 day, DDE = dose-dependent effect
[19] = tested on: HeLa; assay: Induction of apoptosis in human HeLa cells assessed as viable cells at 2.5 uM incubated for 36 hrs by Annexin V-FITC/PI staining based flow cytometric analysis (reference value: 96.14 %); type: functional; conditions: read-out: Activity
[20] = tested on: SW-620; assay: Antitumor activity against human SW620 cells xenografted in BALB/c nude mouse assessed as tumor growth inhibition at 30 mg/kg, IG administered daily for 30 days and measured every 2 days relative to control; type: functional; conditions: SW-620, po, 720 h, time 30 day, read-out: TGI
[21] = tested on: L02; assay: Cytotoxicity against human L02 cells assessed as reduction in cell viability at 0.3125 to 10 uM incubated for 48 to 72 hrs by MTT assay; type: toxicity, cell-based; conditions: l02, 10 µM, dose lower 0.3125 µM, time lower 48 hrs, dose upper 10 µM, time upper 72 hrs
[22] = Toxicity in BALB/c nude mouse xenografted with human HeLa cells assessed as pathological changes in spleen at 60 mg/kg, IG administered daily for 30 days by hematoxylin and eosin staining based microscopic analysis; type: organism-based; conditions: in vivo, po, 720 h, time 30 day

`Cc1nc2cnc3ccc(-c4cnc5[nH]ccc5c4)cc3c2n1-c1ccc(C(C)(C)C#N)nc1` gave an IC50 [1] of 4.6 nM, an Activity [2] of 27.18% and a half-life [3] of 69.6 min. The Activity [4] was “Non-Toxic”, the Activity [5] was “Non-Toxic” and the IC50 [6] was 160 nM. It also gave an IC50 [7] of 250 nM, a viability at 0.625 µM [8] of 70.1% and an inhibition in vivo at 60 mg/kg [9] of 80.2%. The inhibition [10] was “Active”, the inhibition at 0.625 µM [11] was 100% and the Activity [12] was “Non-Toxic”. The t1/2 [13] was 2.6 h, the Activity [14] was 7.4% and the Activity [15] was “Dde”. The AUC [16] was 992 ng·h/mL, the inhibition [17] was “Dde” and the inhibition [18] was “Dde”. For the same molecule, the viability at 2.5 µM [19] was 27.8%, the inhibition in vivo at 30 mg/kg [20] was 70.8% and the Activity [21] was “Non-Toxic”. The Activity [22] was “Non-Toxic”.
